In PMC12809495, “Potential 14-3-3 binding sites in sirtuins reveal extended phosphosite-recognition modes” (Acta Crystallographica Section F: Structural Biology …, 2026):
Where a SMILES comes first, the peptide text is derived from it. [ ]: non-standard residue; d: D form. pS = N[C@@H](COP(=O)(O)O)C(=O)O

How the values were obtained:
14-3-3 isoform gamma = molecular target: T1, 14-3-3 isoform gamma (Homo sapiens, UniProt P61981); assay: Label-free microscale thermophoresis (MST) binding, 14-3-3 gamma; conditions: 0.6 µM 14-3-3 protein, 25 mM MES pH 6.5, 5 mM MgCl2, 5 mM CaCl2, 25°C, Kd from duplicate measurements, aggr. = no successful experiment
T1 construct: His6; made in house; host or cells: Escherichia coli BL21 Rosetta (DE3)
T1 sequence (P61981 1-247): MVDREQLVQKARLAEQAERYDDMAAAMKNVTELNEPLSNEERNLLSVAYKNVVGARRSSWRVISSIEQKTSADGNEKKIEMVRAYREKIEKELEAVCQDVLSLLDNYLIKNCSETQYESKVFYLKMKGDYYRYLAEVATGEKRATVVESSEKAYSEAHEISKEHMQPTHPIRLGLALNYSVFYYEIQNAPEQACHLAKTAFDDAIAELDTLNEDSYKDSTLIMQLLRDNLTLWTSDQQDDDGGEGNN
Description: The binding of phosphorylated sirtuin peptides (Fig. 1 ▸) was analyzed using the change in the intrinsic fluorescence signal of the 14-3-3 proteins measured with label-free microscale thermophoresis using a Nanotemper Monolith NT.LabelFree or NT.115. A typical binding experiment using 0.6 µM 14-3-3 protein was performed in a modified MST buffer consisting of 25 mM MES pH 6.5, 5 mM MgCl2, 5 mM CaCl2. The measurements were performed at 25°C using a LED power of 10–40%. All measurements were performed at least in duplicate, and the results shown are representative measurements individually fitted using GraFit 7 (Erathicus Software, Horley, United Kingdom).
Figure 1 Classification and analysis of sirtuin PSSM results for potential 14-3-3 phosphoserine binding sites. Peptides with a gray background were not analyzed experimentally. Score is the overall PSSM score for the phosphorylation site; rank is the order within the 17 proposed sirtuin binding sites. Conserved residues in the 14-3-3 motifs are marked in green. Residues with restricted (proline) or very flexible (glycine) protein backbone or with a very large side chain (tryptophan) are marked in red. Amino acids with the same or similar hydrophobicity/size are shown in magenta. Kd values from duplicate measurements are colored green for Kd < 100 µM. Fields marked in red indicate no binding or no successful experiment. […]

14-3-3σ-ΔC = molecular target: T2, 14-3-3σ-ΔC (Homo sapiens, UniProt P31947); assay: Isothermal titration calorimetry (ITC); format: binding; conditions: Fig. 3c; nanoITC, 150 µM 14-3-3σ-ΔC in cell, fourfold-concentrated peptide, 2 µl injections, 25°C, one-site fit; duplicate, error between fits; read-out: apparent Kd, ITC
T2 construct: His6; made in house; host or cells: Escherichia coli BL21 Rosetta (DE3)
T2 sequence (P31947 1-231 limits assumed): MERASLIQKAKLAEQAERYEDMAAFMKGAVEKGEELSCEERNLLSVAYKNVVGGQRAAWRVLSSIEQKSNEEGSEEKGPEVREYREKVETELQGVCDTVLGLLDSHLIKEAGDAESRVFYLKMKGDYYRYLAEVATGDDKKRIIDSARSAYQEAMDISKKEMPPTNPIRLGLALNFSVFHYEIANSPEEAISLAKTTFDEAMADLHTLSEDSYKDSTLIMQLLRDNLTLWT
Description: Peptide ligands were freshly prepared in the exact same buffer as was used for the gel-filtration run. Samples were degassed and temperature-equilibrated using a degassing station (TA Instruments). A volume of 250 µl of 14-3-3σ-ΔC protein sample at a concentration of 150 µM was transferred into the sample cell of a nanoITC (TA Instruments) and 50 µl of a fourfold-concentrated phosphorylated peptide was loaded into the injection needle. Multiple injection measurements were carried out at 25°C with a 300 rev min^−1 stirring rate and 300 s spacing between each 2 µl injection. The heat quantity post-injection was determined by integration of the measured peaks. The Sirt1^pS670 peptide behaved best and was measured in duplicate. Subtraction of heat of dilution measurements, peak integration and one-site binding fits were performed with NanoAnalyze (TA Instruments). The reported errors are the errors between fits of the measured duplicates.
Figure 3 Affinity measurements of Sirt1^pS670 and different Sirt3 peptides for 14-3-3σ-ΔC protein using MST and ITC experiments. […] (b) MST experiments of titrations of 14-3-3σ-ΔC with Sirt3^pS105 (squares) or Sirt3^pS103 (two independent runs, filled triangles and triangles) endecamer peptides and, for comparison, with nonphosphoylated Sirt3^S103 peptide (circles).

Affinity estimates by MicroScale Thermophoresis, 14-3-3 isoform gamma (Kd) (14-3-3 isoform gamma): aggr.
Kd (14-3-3σ-ΔC): 5 ± 4.2 µM
SMILES: CC(C)C[C@H](NC(=O)[C@@H](N)C(C)C)C(=O)N[C@@H](CO)C(=O)N[C@@H](CO)C(=O)N[C@@H](CO)C(=O)N[C@@H](COP(=O)(O)O)C(=O)N[C@@H](CS)C(=O)NCC(=O)N[C@@H](CO)C(=O)N[C@@H](CC(N)=O)C(=O)N[C@@H](CO)C(=O)O [Sirt1^pS670] (H-VLSSS[pS]CGSNS-OH)
